| SMILES | logP |
| --- | --- |
| COC(=O)Nc1cccc(C(C)=O)c1 | 1.63 |
| COC(=O)Nc1ccc(C)cc1 | 2.29 |
| CCOc1ccc(NC(=O)OCCC#N)cc1OCC | 2.07 |
| COC(=O)Nc1ccccc1 | 1.75 |
| COC(=O)Nc1ccccc1I | 2.44 |
| COC(=O)Nc1cccc(C)c1 | 2.29 |
| COC(=O)Nc1ccccc1Cl | 2.16 |
| COC(=O)Nc1ccccc1C | 1.69 |
| CCOc1ccccc1NC(=O)OC | 2.43 |
| COC(=O)Nc1ccc(F)cc1 | 1.95 |
| COC(=O)Nc1cccc(OC)c1 | 1.92 |
| COC(=O)Nc1ccccc1C(F)(F)F | 2.09 |
| COC(=O)Nc1ccccc1F | 1.66 |
| C=CCOC(=O)Nc1ccc(OCC)c(OCC)c1 | 2.75 |
| COC(=O)Nc1cccc(C#N)c1 | 1.77 |
| CCc1cccc(NC(=O)OC)c1 | 2.74 |
| COC(=O)Nc1ccccc1[N+](=O)[O-] | 2.1 |
| CCc1ccc(NC(=O)OC)cc1 | 2.72 |
| CCOc1ccc(NC(=O)OCc2ccccc2)cc1OCC | 3.29 |
| CCOc1ccc(NC(=O)OCCOC)cc1OCC | 2.27 |
| CCCCc1ccc(NC(=O)OC)cc1 | 3.69 |

| SMILES | logP |
| --- | --- |
| COC(=O)Nc1cccc(I)c1 | 3.03 |
| C#CCOC(=O)Nc1ccc(OCC)c(OCC)c1 | 2.68 |
| COC(=O)Nc1ccc(C#N)cc1 | 1.82 |
| COC(=O)Nc1ccc(OC)cc1 | 1.73 |
| CCCCOC(=O)Nc1ccc(OCC)c(OCC)c1 | 3.46 |
| CCOc1ccc(NC(=O)OC(C)C)cc1OCC | 2.91 |
| COC(=O)Nc1cccc(Br)c1 | 2.75 |
| CCOc1cccc(NC(=O)OC)c1 | 2.31 |
| COC(=O)Nc1cccc([N+](=O)[O-])c1 | 2 |
| COC(=O)Nc1ccc([N+](=O)[O-])cc1 | 2.12 |
| CCOc1ccc(NC(=O)OC)cc1OCC | 2.1 |
| COC(=O)Nc1ccccc1Br | 2.3 |
| CCOC(=O)Nc1ccc(OCC)c(OCC)c1 | 2.54 |
| COC(=O)Nc1ccccc1OC | 1.84 |
| CCOc1ccc(NC(=O)OC(CBr)CBr)cc1OCC | 3.5 |
| COC(=O)Nc1ccc(Cl)cc1 | 2.55 |
| CCCOC(=O)Nc1ccc(OCC)c(OCC)c1 | 2.93 |
| CCOc1ccc(NC(=O)OC)cc1 | 2.15 |
| CCOc1ccc(NC(=O)OCC(C)C)cc1OCC | 3.36 |
| COC(=O)Nc1cccc(C(F)(F)F)c1 | 2.74 |

From the OPERA property sets (Mansouri et al. 2018)
